Experimental data from patent US9944639B2, “Quinolizinone derivatives as PI3K inhibitors” (Lupin Limited, priority 2014, dated 2018).

These molecules were tested against T1, PI3Kδ (Homo sapiens, UniProt O00329) (assay: Cell Based Assay for PI3Kδ (AKT phosphorylation, AlphaScreen SureFire, anti-IgM stimulated Raji cells)). Details: compounds 1 h, anti-IgM (3 μg/mL) 30 min, phosphorylation of AKT, read-out: PI3Kδ inhibition IC50.
T1 construct: endogenous in cells; host or cells: Raji cells
Method: [formula] C) Cell Based Assay for PI3Kδ
Raji cells were maintained in RPMI-1640 (Sigma) supplemented with 10% fetal bovine serum (heat inactivated) (FBS, Sigma), 100 U penicillin/mL, and […] streptomycin and incubated at 37° C. and 5% CO2. Cells were centrifuged and resuspended in a complete medium. The required numbers of cells were transferred to a tissue culture flask containing medium without serum for 1 h at 37° C., 5% CO2. Following 1 h serum starvation, cells were centrifuged and resuspended in Hank's Balanced Salt Solution (HBSS, Sigma) and seeded in at a density of 1 million cells/well in 96-well clear bottom plates. The cells were treated with test compounds for 1 h at 37° C., 5% CO2. Cells were then stimulated with anti-IgM (3 μg/mL) for 30 min. After Stimulation, cells were lysed with 15 μL of 5× lysis buffer and the plate was shaken on an orbital plate shaker at approximately 300 rpm for 10 min. AlphaScreen® SureFire® Cell-based Assay (Perkin-Elmer, Waltham, Mass., USA) was performed to measure phosphorylation of AKT, in the cells according to the manufacturer's instructions. The luminescence was measured using an alpha technology-compatible plate reader BMG Labtech, Germany) at 520-620 nm. Percentage inhibition was calculated according to formula: […]
IC50 values were calculated by plotting % inhibition against the respective concentrations of test compounds using GraphPad Prism 5.

T1 sequence (O00329 whole entry): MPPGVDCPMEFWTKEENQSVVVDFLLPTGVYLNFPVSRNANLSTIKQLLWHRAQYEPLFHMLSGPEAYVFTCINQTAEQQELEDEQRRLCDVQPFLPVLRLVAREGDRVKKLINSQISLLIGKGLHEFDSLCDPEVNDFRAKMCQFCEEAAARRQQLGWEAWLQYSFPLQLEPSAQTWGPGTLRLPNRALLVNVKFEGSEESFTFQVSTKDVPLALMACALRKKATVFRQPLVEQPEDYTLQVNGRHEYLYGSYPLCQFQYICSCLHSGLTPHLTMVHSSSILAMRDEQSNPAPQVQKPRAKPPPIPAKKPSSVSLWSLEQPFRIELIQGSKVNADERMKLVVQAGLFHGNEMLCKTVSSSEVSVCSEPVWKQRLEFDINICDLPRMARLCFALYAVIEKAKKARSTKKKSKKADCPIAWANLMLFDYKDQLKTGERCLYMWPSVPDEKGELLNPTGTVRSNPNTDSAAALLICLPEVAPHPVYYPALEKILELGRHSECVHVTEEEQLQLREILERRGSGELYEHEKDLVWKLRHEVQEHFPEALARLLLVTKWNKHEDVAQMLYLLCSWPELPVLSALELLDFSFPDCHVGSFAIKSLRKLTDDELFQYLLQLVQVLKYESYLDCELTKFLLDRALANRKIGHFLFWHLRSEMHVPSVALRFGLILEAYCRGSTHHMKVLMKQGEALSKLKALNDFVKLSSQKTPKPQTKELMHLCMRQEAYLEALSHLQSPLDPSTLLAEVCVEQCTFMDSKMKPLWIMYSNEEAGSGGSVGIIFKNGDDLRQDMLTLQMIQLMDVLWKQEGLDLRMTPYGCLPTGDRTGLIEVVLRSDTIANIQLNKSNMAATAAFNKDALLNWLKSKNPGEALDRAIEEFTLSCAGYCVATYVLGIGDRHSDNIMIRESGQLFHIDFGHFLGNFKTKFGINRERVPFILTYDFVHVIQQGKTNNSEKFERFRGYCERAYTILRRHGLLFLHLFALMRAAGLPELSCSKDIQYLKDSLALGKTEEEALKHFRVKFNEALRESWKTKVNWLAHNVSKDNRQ
T1 sequence (P27986 whole entry partner): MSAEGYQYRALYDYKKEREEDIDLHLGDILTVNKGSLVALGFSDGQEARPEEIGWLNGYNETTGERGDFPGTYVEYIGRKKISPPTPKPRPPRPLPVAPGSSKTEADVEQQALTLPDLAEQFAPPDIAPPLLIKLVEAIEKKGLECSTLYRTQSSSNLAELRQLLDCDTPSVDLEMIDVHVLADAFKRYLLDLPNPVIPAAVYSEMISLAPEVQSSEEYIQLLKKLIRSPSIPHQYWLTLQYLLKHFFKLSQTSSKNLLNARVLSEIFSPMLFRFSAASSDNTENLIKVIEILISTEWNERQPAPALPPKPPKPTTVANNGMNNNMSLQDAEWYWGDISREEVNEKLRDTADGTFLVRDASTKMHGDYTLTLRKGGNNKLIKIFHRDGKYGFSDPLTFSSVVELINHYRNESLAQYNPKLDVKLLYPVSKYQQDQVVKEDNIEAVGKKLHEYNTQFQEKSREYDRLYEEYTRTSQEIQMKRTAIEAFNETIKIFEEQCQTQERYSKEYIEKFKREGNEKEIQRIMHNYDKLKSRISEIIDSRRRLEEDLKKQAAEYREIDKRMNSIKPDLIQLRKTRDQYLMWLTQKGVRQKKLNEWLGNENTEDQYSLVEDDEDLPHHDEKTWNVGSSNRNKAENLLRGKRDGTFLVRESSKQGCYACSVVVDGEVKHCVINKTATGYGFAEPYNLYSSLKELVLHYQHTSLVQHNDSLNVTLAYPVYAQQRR

SMILES	IC50 [nM]
C[C@H](Nc1ncnc(N)c1C#N)c1cc2ccc(F)cn2c(=O)c1-c1cccc(OC(F)(F)F)c1 [Compound 34, (S)-4-amino-6-((1-(7-fluoro-4-oxo-3-(3-(trifluoromethoxy)phenyl)-4H-quinolizin-2-yl)ethyl)amino)pyrimidine-5-carbonitrile]	11 to 50
CC[C@H](Nc1ncnc(N)c1C#N)c1cc2ccc(F)cn2c(=O)c1-c1cccc(F)c1 (single isomer, unassigned) [Compound 44a, 4-Amino-6-((1-(7-fluoro-3-(3-fluorophenyl)-4-oxo-4H-quinolizin-2-yl)propyl)amino)pyrimidine-5-carbonitrile]	11 to 50
C[C@H](Nc1ncnc(N)c1C#N)c1cc2ccc(F)cn2c(=O)c1-c1ccc(F)cc1 [Compound 36, (S)-4-amino-6-((1-(7-fluoro-3-(4-fluorophenyl)-4-oxo-4H-quinolizin-2-yl)ethyl)amino)pyrimidine-5-carbonitrile]	11 to 50
COc1ccc(-c2nn([C@@H](C)c3cc4ccc(F)cn4c(=O)c3-c3ccccc3)c3ncnc(N)c23)cn1 (single isomer, unassigned) [Compound 64a, 2-(1-(4-amino-3-(6-methoxypyridin-3-yl)-1H-pyrazolo[3,4-d]pyrimidin-1-yl)ethyl)-7-fluoro-3-phenyl-4H-quinolizin-4-one]	11 to 50
C[C@H](Nc1ncnc2[nH]cnc12)c1cc2ccccn2c(=O)c1-c1cccc(F)c1 (single isomer, unassigned) [Compound 5a, 2-(1-((9H-purin-6-yl)amino)ethyl)-3-(3-fluorophenyl)-4H-quinolizin-4-one]	51 to 250
C[C@H](Nc1nc(N)ncc1C#N)c1cc2ccc(F)cn2c(=O)c1-c1cccc(F)c1 (single isomer, unassigned) [Compound 20a, 2-Amino-4-((1-(7-fluoro-3-(3-fluorophenyl)-4-oxo-4H-quinolizin-2-yl)ethyl)amino)pyrimidine-5-carbonitrile]	11 to 50

These reach a lower IC50. Values come first.

IC50 [nM]	SMILES
0.1 to 10	Cc1cccc2cc([C@H](C)Nc3nc(F)nc4[nH]cnc34)c(-c3ccccc3)c(=O)n12 (single isomer, unassigned) [Compound 9a, 2-(1-((2-Fluoro-9H-purin-6-yl)amino)ethyl)-6-methyl-3-phenyl-4H-quinolizin-4-one]
0.1 to 10	C[C@H](Nc1ncnc(N)c1C#N)c1cc2ccc(F)cn2c(=O)c1-c1cccc(F)c1 (single isomer, unassigned) [Compound 16a, 4-Amino-6-((1-(7-fluoro-3-(3-fluorophenyl)-4-oxo-4H-quinolizin-2-yl)ethyl)amino)pyrimidine-5-carbonitrile]
0.1 to 10	CC(c1cc2ccc(F)cn2c(=O)c1-c1ccccc1)n1cc(-c2cc(O)cc(F)c2)c2c(N)ncnc21 (stereo not drawn) [Compound 63, 2-(1-(4-amino-5-(3-fluoro-5-hydroxyphenyl)-7H-pyrrolo[2,3-d]pyrimidin-7-yl)ethyl)-7-fluoro-3-phenyl-4H-quinolizin-4-one]
0.1 to 10	Cc1c(F)ccc2cc([C@H](C)Nc3ncnc4[nH]cnc34)c(-c3ccccc3)c(=O)n12 (single isomer, unassigned) [Compound 24a, 2-(1-((9H-purin-6-yl)amino)ethyl)-7-fluoro-6-methyl-3-phenyl-4H-quinolizin-4-one]
0.1 to 10	C[C@H](Nc1ncnc(N)c1C#N)c1cc2ccccn2c(=O)c1-c1cccc(F)c1 (single isomer, unassigned) [Compound 6a, 4-Amino-6-((1-(3-(3-fluorophenyl)-4-oxo-4H-quinolizin-2-yl)ethyl)amino)-pyrimidine-5-carbonitrile]
0.1 to 10	CC(c1cc2ccc(F)cn2c(=O)c1-c1ccccc1)n1nc(-c2cc(O)cc(F)c2)c2c(N)ncnc21 (stereo not drawn) [Compound 59, 2-(1-(4-amino-3-(3-fluoro-5-hydroxyphenyl)-1H-pyrazolo[3,4-d]pyrimidin-1-yl)ethyl)-7-fluoro-3-phenyl-4H-quinolizin-4-one]
